Data: ChEMBL document CHEMBL3885861, “Open TG-GATES”

Species on record: Rattus norvegicus
Assay: Open TG-GATES - Regimen: Daily Repeat
Format: toxicity, organism-based, Sprague-Dawley
Set-up: regimen Daily Repeat, gender Male, age 6 weeks
Settings: in vivo, po, 20 mg/kg, route gavage, dose level Low; for APTT / Bas / Eos / Fbg / Hb / Ht / Lym / MCH / MCHC / MCV / Mono / Neu / PT / Plat / RBC / Ret / WBC: tissue Blood
[1] = 72 h, tissue Kidney, time 3 day
[2] = 72 h, tissue Plasma, time 3 day

CC(CN1c2ccccc2Sc2ccccc21)N(C)C (stereo unspecified) [PROMETHAZINE] gave a TERMINAL_BW (72 h, time 3 day) of 231 g, an APTT (72 h, time 3 day) of 22 s and a Bas (72 h, time 3 day) of 0%. It also gave an Eos (72 h, time 3 day) of 1%, a Fbg (72 h, time 3 day) of 314.4 mg/dL and a Hb (72 h, time 3 day) of 13.3 g/dL. The Ht (72 h, time 3 day) was 40.4%, the Lym (72 h, time 3 day) was 77.2% and the MCH (72 h, time 3 day) was 20.7 pg. For the same compound, the MCHC (72 h, time 3 day) was 33.1%, the MCV (72 h, time 3 day) was 62.7 fL and the Mono (72 h, time 3 day) was 2.4%. It also gave a Neu (72 h, time 3 day) of 18.6%, a PT (72 h, time 3 day) of 16.2 s and a Plat (72 h, time 3 day) of 125.4 x10_4/uL. The RBC (72 h, time 3 day) was 644.6 x10_4/ul, the Ret (72 h, time 3 day) was 6.8% and the WBC (72 h, time 3 day) was 97.3 x10_2/uL. The KIDNEY_L [1] was 1 g, the KIDNEY_R [1] was 1.1 g and the KIDNEY_TOTAL [1] was 2.1 g. The LIVER (72 h, tissue Liver, time 3 day) was 11.5 g, the A/G [2] was 1.2 and the ALP [2] was 1570.4 IU/L. The ALT [2] was 48.2 IU/L, the AST [2] was 75.2 IU/L and the BUN [2] was 17.2 mg/dL. The CRE [2] was 0.2 mg/dL, the Ca [2] was 10.8 mg/dL and the Cl [2] was 105.4 meq/L. For the same compound, the DBIL [2] was 0 mg/dL, the GLC [2] was 184 mg/dL and the IP [2] was 7.1 mg/dL. For the same compound, the K [2] was 4.3 meq/L, the LDH [2] was 166.4 IU/L and the Na [2] was 142 meq/L. It also gave a PL [2] of 155.2 mg/dL, an RALB [2] of 3.1 g/dL and a TBIL [2] of 0.004 mg/dL. The TC [2] was 78.2 mg/dL, the TG [2] was 118.4 mg/dL and the TP [2] was 5.7 g/dL. It also gave a gamma-GTP [2] of 2 IU/L, a TERMINAL_BW ([…], time 7 day) of 261 g and a TERMINAL_BW ([…], time 14 day) of 292.3 g. The TERMINAL_BW ([…], time 28 day) was 387.7 g, the APTT ([…], time 7 day) was 22.6 s and the Bas ([…], time 7 day) was 0%. The Eos ([…], time 7 day) was 0.8%, the Fbg ([…], time 7 day) was 282.6 mg/dL and the Hb ([…], time 7 day) was 13.4 g/dL. It also gave a Ht ([…], time 7 day) of 40.4%, a Lym ([…], time 7 day) of 84.4% and an MCH ([…], time 7 day) of 20.5 pg. For the same compound, the MCHC ([…], time 7 day) was 33.3%, the MCV ([…], time 7 day) was 61.5 fL and the Mono ([…], time 7 day) was 2.4%. For the same compound, the Neu ([…], time 7 day) was 11.6%, the PT ([…], time 7 day) was 16 s and the Plat ([…], time 7 day) was 114.7 x10_4/uL. It also gave an RBC ([…], time 7 day) of 657.4 x10_4/ul, a Ret ([…], time 7 day) of 5.4% and a WBC ([…], time 7 day) of 125.4 x10_2/uL. For the same compound, the APTT ([…], time 14 day) was 23.8 s, the Bas ([…], time 14 day) was 0% and the Eos ([…], time 14 day) was 1%. For the same compound, the Fbg ([…], time 14 day) was 315 mg/dL, the Hb ([…], time 14 day) was 14.7 g/dL and the Ht ([…], time 14 day) was 42.6%. The Lym ([…], time 14 day) was 79.6%, the MCH ([…], time 14 day) was 19.8 pg and the MCHC ([…], time 14 day) was 34.4%. It also gave an MCV ([…], time 14 day) of 57.6 fL, a Mono ([…], time 14 day) of 2% and a Neu ([…], time 14 day) of 16.6%. For the same compound, the PT ([…], time 14 day) was 15.8 s, the Plat ([…], time 14 day) was 112 x10_4/uL and the RBC ([…], time 14 day) was 740.6 x10_4/ul. The Ret ([…], time 14 day) was 4.2%, the WBC ([…], time 14 day) was 109.3 x10_2/uL and the APTT ([…], time 28 day) was 23.6 s. The Bas ([…], time 28 day) was 0%, the Eos ([…], time 28 day) was 1% and the Fbg ([…], time 28 day) was 297.6 mg/dL. The Hb ([…], time 28 day) was 15 g/dL and the Ht ([…], time 28 day) was 43.5%.
